Experimental data published in patent US20230085307A1, “PYRIDAZINONE COMPOUND AND HERBICIDE” (NISSAN CHEMICAL CORPORATION, priority 2019, published 2023).

Columns and labels:
oval-leafed pondweed = test: Test Example 1: herbicidal activity, application before weed generation under submerged conditions (Table 16, symbol C); format: in vivo, oval-leafed pondweed (Monochoria vaginalis); settings: amount of applied herbicide 320 g/ha
How it was run: (§1)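 Emulsion formulation, water-diluted to set dose, was put onto the flooded surface (4 cm depth, alluvial soil) the same day weeds were sown and 2.5-leaf rice transplanted. After 3 weeks at 25-30 °C under glass, each species was rated 0 (≤5% kill) to 5 (≥90% kill).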

redroot pigweed = test: Test Example 5: herbicidal effect by foliage application, plastic box (Table 20, symbol N); format: in vivo, redroot pigweed (Amaranthus retroflexus); settings: foliage application, 320 g/ha, three weeks after application
How it was run: (§2)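 Sow seeds spot-wise in sterilized diluvial soil; cover with ~1.5 cm soil. Grow 14 days in greenhouse, 25° C. to 30° C. Spray foliage with emulsion diluted to predetermined amount. Rate effect after 3 weeks.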

blackgrass = test: Test Example 5: herbicidal effect by foliage application, plastic box (Table 20, symbol J); format: in vivo, blackgrass (Alopecurus myosuroides); settings: foliage application, 320 g/ha, three weeks after application
How it was run: as §2

southern crabgrass = test: Test Example 5: herbicidal effect by foliage application, plastic box (Table 20, symbol F); format: in vivo, southern crabgrass (Digitaria ciliaris); settings: foliage application, 320 g/ha, three weeks after application
How it was run: as §2

beet = test: Test Example 5: effect on crop by foliage application, plastic box (Table 20, symbol f); format: in vivo; settings: 320 g/ha, three weeks after application
How it was run: as §2

Italian ryegrass = test: Test Example 5: herbicidal effect by foliage application, plastic box (Table 20, symbol K); format: in vivo, Italian ryegrass (Lolium multiflorum); settings: foliage application, 320 g/ha, three weeks after application
How it was run: as §2

barnyard grass [1] = test: Test Example 3: herbicidal effect by foliage application, Wagner pot (Table 18, symbol H); format: in vivo, barnyard grass (Echinochloa crus-galli); settings: 320 g/ha
How it was run: (§3)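 Plants were sown in alluvial soil held under 0.1–0.5 cm standing water and grown 14 days in a greenhouse at 25–30 °C. An emulsifiable formulation, water-diluted to the set dose, was then sprayed onto the foliage, and effects were scored three weeks later using previously defined criteria.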

chickweed = test: Test Example 5: herbicidal effect by foliage application, plastic box (Table 20, symbol P); format: in vivo, common chickweed (Stellaria media); settings: foliage application, 320 g/ha, three weeks after application
How it was run: as §2

wild oat = test: Test Example 5: herbicidal effect by foliage application, plastic box (Table 20, symbol I); format: in vivo, wild oat (Avena fatua); settings: foliage application, 320 g/ha, three weeks after application
How it was run: as §2

soybean = test: Test Example 5: effect on crop by foliage application, plastic box (Table 20, symbol d); format: in vivo; settings: 320 g/ha, three weeks after application
How it was run: as §2

Japanese bulrush = test: Test Example 1: herbicidal activity, application before weed generation under submerged conditions (Table 16, symbol B); format: in vivo, Japanese bulrush (Schoenoplectus juncoides); settings: amount of applied herbicide 320 g/ha
How it was run: as §1

directly sowed rice = test: Test Example 3: effect on crop by foliage application, Wagner pot (Table 18, symbol b); format: in vivo; settings: 320 g/ha
How it was run: as §3

corn = test: Test Example 5: effect on crop by foliage application, plastic box (Table 20, symbol c); format: in vivo; settings: 320 g/ha, three weeks after application
How it was run: as §2

windgrass = test: Test Example 5: herbicidal effect by foliage application, plastic box (Table 20, symbol L); format: in vivo, windgrass (Apera spica-venti); settings: foliage application, 320 g/ha, three weeks after application
How it was run: as §2

late watergrass = test: Test Example 1: herbicidal activity, application before weed generation under submerged conditions (Table 16, symbol A); format: in vivo, late watergrass (Echinochloa oryzicola); settings: amount of applied herbicide 320 g/ha
How it was run: as §1

rapeseed = test: Test Example 5: effect on crop by foliage application, plastic box (Table 20, symbol g); format: in vivo; settings: 320 g/ha, three weeks after application
How it was run: as §2

green foxtail = test: Test Example 5: herbicidal effect by foliage application, plastic box (Table 20, symbol G); format: in vivo, green foxtail (Setaria viridis); settings: foliage application, 320 g/ha, three weeks after application
How it was run: as §2

velvetleaf = test: Test Example 5: herbicidal effect by foliage application, plastic box (Table 20, symbol M); format: in vivo, velvetleaf (Abutilon theophrasti); settings: foliage application, 320 g/ha, three weeks after application
How it was run: as §2

transplanted rice = test: Test Example 1: effect on crop, application before weed generation under submerged conditions (Table 16, symbol a); format: in vivo; settings: amount of applied herbicide 320 g/ha
Description: [Test Example 1] Herbicidal Activity Test by Application before Weed Generation under Submerged Conditions After alluvial soil was placed into 1/10000 are of Wagner pot, water was poured and mixed to form a submerged condition having a water depth of 4 cm. Seeds of late watergrass, Japanese bulrush, and oval-leafed pondweed were sowed in a mixed manner in the aforementioned pot, and then 2.5 leaf stage rice plant seedlings were transplanted thereto. On the day of sowing seeds, the emulsion agent of the compound of the present invention prepared according to Formulation Example 2 was diluted with water so as to achieve a predetermined herbicide amount, and the diluted emulsion agent was applied to the surface of the water. The pot was placed in a greenhouse at 25° C. to 30° C. for growth of the plants. Three weeks after the herbicide application, the effect of the herbicide on each plant was evaluated according to the following criteria. Evaluation Criteria 5: Herbicidal rate of 90% or more (almost completely withered) 4: Herbicidal rate of 70% or more and less than 90% 3: Herbicidal rate of 40% or more and less than 70% 2: Herbicidal rate of 20% or more and less than 40% 1: Herbicidal rate of 5% or more and less than 20% 0: Herbicidal rate of 5% or less (almost no effect)

persian speedwell = test: Test Example 5: herbicidal effect by foliage application, plastic box (Table 20, symbol R); format: in vivo, Persian speedwell (Veronica persica); settings: foliage application, 320 g/ha, three weeks after application
How it was run: as §2

barnyard grass [2] = test: Test Example 5: herbicidal effect by foliage application, plastic box (Table 20, symbol H); format: in vivo, barnyard grass (Echinochloa crus-galli); settings: foliage application, 320 g/ha, three weeks after application
How it was run: as §2

lambsquarters = test: Test Example 5: herbicidal effect by foliage application, plastic box (Table 20, symbol O); format: in vivo, lambsquarters (Chenopodium album); settings: foliage application, 320 g/ha, three weeks after application
How it was run: as §2

Chinese sprangletop = test: Test Example 3: herbicidal effect by foliage application, Wagner pot (Table 18, symbol D); format: in vivo, chinese sprangletop (Leptochloa chinensis); settings: 320 g/ha
How it was run: as §3

wheat = test: Test Example 5: effect on crop by foliage application, plastic box (Table 20, symbol e); format: in vivo; settings: 320 g/ha, three weeks after application
How it was run: as §2

rice flat sedge = test: Test Example 3: herbicidal effect by foliage application, Wagner pot (Table 18, symbol E); format: in vivo, rice flat sedge (Cyperus iria); settings: 320 g/ha
How it was run: as §3

melting point: 163 to 166 °C
Structure (SMILES): COc1ccc2c(-c3c(O)c(N(Cc4ccccc4)Cc4ccccc4)nn(C)c3=O)c(-c3ccccc3OC)sc2c1 [Compound No. 3-086, 6-(dibenzylamino)-5-hydroxy-4-(6-methoxy-2-(2-methoxyphenyl)benzo[b]thiophen-3-yl)-2-methylpyridazin-3(2H)-one]
Herbicidal effect, C: oval-leafed pondweed (oval-leafed pondweed): 0 (Herbicidal rate of 5% or less (almost no effect))
N: redroot pigweed, herbicidal effect grade (redroot pigweed): 5 (Herbicidal rate of 90% or more (almost completely withered))
J: blackgrass, herbicidal effect grade (blackgrass): 3 (Herbicidal rate of 40% or more and less than 70%)
F: southern crabgrass, herbicidal effect grade (southern crabgrass): 0 (Herbicidal rate of 5% or less (almost no effect))
f: beet, effect on crop grade (beet): 0 (Herbicidal rate of 5% or less (almost no effect))
K: Italian ryegrass, herbicidal effect grade (Italian ryegrass): 0 (Herbicidal rate of 5% or less (almost no effect))
herbicidal effect on barnyard grass (H) (barnyard grass [1]): 3 (Herbicidal rate of 40% or more and less than 70%)
P: chickweed, herbicidal effect grade (chickweed): 0 (Herbicidal rate of 5% or less (almost no effect))
I: wild oat, herbicidal effect grade (wild oat): 0 (Herbicidal rate of 5% or less (almost no effect))
d: soybean, effect on crop grade (soybean): 3 (Herbicidal rate of 40% or more and less than 70%)
Herbicidal effect, B: Japanese bulrush (Japanese bulrush): 2 (Herbicidal rate of 20% or more and less than 40%)
effect on directly sowed rice (b) (directly sowed rice): 0 (Herbicidal rate of 5% or less (almost no effect))
c: corn, effect on crop grade (corn): 0 (Herbicidal rate of 5% or less (almost no effect))
L: windgrass, herbicidal effect grade (windgrass): 0 (Herbicidal rate of 5% or less (almost no effect))
Herbicidal effect, A: late watergrass (late watergrass): 0 (Herbicidal rate of 5% or less (almost no effect))
g: rapeseed, effect on crop grade (rapeseed): 5 (Herbicidal rate of 90% or more (almost completely withered))
G: green foxtail, herbicidal effect grade (green foxtail): 0 (Herbicidal rate of 5% or less (almost no effect))
M: velvetleaf, herbicidal effect grade (velvetleaf): 0 (Herbicidal rate of 5% or less (almost no effect))
Effect on crop, a: transplanted rice (transplanted rice): 0 (Herbicidal rate of 5% or less (almost no effect))
R: persian speedwell, herbicidal effect grade (persian speedwell): 0 (Herbicidal rate of 5% or less (almost no effect))
H: barnyard grass, herbicidal effect grade (barnyard grass [2]): 0 (Herbicidal rate of 5% or less (almost no effect))
O: lambsquarters, herbicidal effect grade (lambsquarters): 1 (Herbicidal rate of 5% or more and less than 20%)
herbicidal effect on Chinese sprangletop (D) (Chinese sprangletop): 0 (Herbicidal rate of 5% or less (almost no effect))
e: wheat, effect on crop grade (wheat): 0 (Herbicidal rate of 5% or less (almost no effect))
herbicidal effect on rice flat sedge (E) (rice flat sedge): 0 (Herbicidal rate of 5% or less (almost no effect))
